Source: publication PMC9841523 (Journal of Medicinal Chemistry, 2022)

Key:
Experiment in all cases: KiNativ kinase panel
AMPKa1, AMPKa2 = type: cell-based, human; details: 1 μM, MCF-7 Cells
FYN, SRC, YES = type: cell-based, human; details: 1 μM, MCF-7 Cells, Activation Loop
JAK1_Domain2 domain2 = biological target: T1, JAK1_Domain2 domain2 (Homo sapiens, UniProt P23458); type: cell-based; details: 1 μM, MCF-7 Cells
T1 construct: endogenous in cells; host or cells: MCF7

LATS2 = biological target: T2, LATS2 (Homo sapiens, UniProt Q9NRM7); type: cell-based; details: 1 μM, MCF-7 Cells
T2 construct: endogenous in cells; host or cells: MCF7
T2 sequence (Q9NRM7 1-1088): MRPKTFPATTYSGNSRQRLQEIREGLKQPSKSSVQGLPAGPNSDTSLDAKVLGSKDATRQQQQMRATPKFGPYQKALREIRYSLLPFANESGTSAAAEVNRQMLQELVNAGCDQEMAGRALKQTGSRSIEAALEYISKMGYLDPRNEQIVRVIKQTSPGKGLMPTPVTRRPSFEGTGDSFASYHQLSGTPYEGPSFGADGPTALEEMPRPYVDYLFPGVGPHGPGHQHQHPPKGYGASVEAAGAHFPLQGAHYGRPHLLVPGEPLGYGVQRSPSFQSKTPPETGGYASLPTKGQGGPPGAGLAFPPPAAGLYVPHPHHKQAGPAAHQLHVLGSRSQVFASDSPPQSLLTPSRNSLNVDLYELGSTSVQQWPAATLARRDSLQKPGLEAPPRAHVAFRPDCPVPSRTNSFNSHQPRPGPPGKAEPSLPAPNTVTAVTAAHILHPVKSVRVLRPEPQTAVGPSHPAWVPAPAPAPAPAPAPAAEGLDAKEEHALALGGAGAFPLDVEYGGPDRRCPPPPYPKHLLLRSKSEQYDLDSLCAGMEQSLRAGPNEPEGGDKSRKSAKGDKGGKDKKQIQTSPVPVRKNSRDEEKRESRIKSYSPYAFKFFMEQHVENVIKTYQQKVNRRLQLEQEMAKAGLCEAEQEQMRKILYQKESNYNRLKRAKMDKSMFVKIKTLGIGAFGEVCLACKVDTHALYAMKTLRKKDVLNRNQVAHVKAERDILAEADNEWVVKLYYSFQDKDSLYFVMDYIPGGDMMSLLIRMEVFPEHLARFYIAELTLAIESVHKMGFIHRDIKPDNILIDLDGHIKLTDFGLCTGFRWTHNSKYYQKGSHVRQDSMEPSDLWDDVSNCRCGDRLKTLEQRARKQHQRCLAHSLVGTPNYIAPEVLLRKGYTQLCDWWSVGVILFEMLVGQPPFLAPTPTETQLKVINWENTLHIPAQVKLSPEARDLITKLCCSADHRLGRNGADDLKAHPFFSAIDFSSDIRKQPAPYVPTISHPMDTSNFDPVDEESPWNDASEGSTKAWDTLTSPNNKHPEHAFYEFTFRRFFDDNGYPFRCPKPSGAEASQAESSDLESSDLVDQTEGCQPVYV

LOK = biological target: T3, LOK (Homo sapiens, UniProt O94804); type: cell-based; details: 1 μM; MCF-7 Cells; Lys2; DLKAGNVLMTLEGDIR
T3 construct: endogenous in cells; host or cells: MCF7

MAP3K2, MAP3K3 = type: cell-based, human; details: 1 μM; MCF-7 Cells; Lys2; DIKGANILR
MAST1, MAST2 = type: cell-based, human; details: 1 μM, MCF-7 Cells, Lys2
MET = biological target: T4, MET (Homo sapiens, UniProt P08581); type: cell-based; details: 1 μM; MCF-7 Cells; Activation Loop; TGAKLPVK
T4 construct: purchased ActivX Biosciences (KiNativ)

MST1 = biological target: T5, MST1 (Homo sapiens, UniProt Q13043); type: cell-based; details: 1 μM; MCF-7 Cells; Lys1; ETGQIVAIKQVPVESDLQEIIK
T5 construct: purchased ActivX Biosciences (KiNativ)

PITSLRE = type: cell-based, human; details: 1 μM; MCF-7 Cells; Lys2; DLKTSNLLLSHAGILK
PKR = biological target: T6, PKR (Homo sapiens, UniProt P19525); type: cell-based; details: 1 μM, MCF-7 Cells
T6 construct: MCF7 cells were exposed to; endogenous in cells; host or cells: MCF7

ULK3 = biological target: T7, ULK3 (Homo sapiens, UniProt Q6PHR2); type: cell-based; details: 1 μM, MCF-7 Cells
T7 construct: endogenous in cells; host or cells: MCF7
T7 sequence (Q6PHR2 1-472): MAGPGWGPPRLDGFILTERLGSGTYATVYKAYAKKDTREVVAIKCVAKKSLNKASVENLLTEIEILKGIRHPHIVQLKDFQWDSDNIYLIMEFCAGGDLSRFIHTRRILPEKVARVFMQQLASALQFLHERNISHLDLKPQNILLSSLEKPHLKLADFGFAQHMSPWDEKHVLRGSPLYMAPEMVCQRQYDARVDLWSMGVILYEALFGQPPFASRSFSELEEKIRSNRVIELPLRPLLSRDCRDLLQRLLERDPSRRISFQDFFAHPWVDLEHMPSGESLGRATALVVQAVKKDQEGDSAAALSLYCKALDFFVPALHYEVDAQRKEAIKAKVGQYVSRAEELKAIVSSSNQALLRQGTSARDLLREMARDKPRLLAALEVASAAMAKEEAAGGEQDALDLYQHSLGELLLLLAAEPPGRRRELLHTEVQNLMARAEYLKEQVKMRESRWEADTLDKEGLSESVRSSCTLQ

[1] = tested on: ZC1/HGK, ZC2/TNIK, ZC3/MINK; type: cell-based, human; details: 1 μM, MCF-7 Cells, Lys2
[2] = Activation Loop, IGDFGLTKAIETDKEYYTVK
[3] = Lys1, YDPEGDNTGEQVAVKSLKPESGGNHIADLKK
[4] = Activation Loop, IGDFGLVTSLKNDGKR

T1 sequence (P23458 whole entry, the tested form may be a part): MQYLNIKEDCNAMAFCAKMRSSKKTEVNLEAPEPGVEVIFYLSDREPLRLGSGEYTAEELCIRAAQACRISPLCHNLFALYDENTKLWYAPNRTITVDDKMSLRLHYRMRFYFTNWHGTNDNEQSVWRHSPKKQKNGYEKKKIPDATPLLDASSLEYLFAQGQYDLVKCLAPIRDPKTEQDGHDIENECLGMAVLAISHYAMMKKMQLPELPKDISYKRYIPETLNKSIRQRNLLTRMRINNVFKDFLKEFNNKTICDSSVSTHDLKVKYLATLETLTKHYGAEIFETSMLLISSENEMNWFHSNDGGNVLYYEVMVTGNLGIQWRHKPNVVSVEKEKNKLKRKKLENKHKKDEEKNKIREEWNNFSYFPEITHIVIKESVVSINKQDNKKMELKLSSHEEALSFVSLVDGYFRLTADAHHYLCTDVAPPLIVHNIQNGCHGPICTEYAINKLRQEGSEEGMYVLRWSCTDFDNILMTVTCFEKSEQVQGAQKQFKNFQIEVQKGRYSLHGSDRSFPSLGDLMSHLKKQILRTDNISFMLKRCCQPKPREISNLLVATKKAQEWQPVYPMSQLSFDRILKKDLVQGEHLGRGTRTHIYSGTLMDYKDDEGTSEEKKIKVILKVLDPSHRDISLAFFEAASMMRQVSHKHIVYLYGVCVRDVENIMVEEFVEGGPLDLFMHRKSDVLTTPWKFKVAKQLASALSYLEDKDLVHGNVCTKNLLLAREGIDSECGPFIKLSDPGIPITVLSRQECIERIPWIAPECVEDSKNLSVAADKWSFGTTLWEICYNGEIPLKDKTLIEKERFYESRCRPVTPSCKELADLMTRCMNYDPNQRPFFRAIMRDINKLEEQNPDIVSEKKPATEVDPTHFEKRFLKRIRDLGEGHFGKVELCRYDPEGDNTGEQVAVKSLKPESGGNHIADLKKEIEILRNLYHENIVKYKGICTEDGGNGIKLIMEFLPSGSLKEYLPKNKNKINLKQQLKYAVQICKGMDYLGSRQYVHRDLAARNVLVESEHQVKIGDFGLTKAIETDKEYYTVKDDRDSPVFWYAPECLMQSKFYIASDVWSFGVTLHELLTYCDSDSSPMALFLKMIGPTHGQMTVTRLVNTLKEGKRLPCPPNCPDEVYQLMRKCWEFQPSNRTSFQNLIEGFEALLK
T6 sequence (P19525 whole entry): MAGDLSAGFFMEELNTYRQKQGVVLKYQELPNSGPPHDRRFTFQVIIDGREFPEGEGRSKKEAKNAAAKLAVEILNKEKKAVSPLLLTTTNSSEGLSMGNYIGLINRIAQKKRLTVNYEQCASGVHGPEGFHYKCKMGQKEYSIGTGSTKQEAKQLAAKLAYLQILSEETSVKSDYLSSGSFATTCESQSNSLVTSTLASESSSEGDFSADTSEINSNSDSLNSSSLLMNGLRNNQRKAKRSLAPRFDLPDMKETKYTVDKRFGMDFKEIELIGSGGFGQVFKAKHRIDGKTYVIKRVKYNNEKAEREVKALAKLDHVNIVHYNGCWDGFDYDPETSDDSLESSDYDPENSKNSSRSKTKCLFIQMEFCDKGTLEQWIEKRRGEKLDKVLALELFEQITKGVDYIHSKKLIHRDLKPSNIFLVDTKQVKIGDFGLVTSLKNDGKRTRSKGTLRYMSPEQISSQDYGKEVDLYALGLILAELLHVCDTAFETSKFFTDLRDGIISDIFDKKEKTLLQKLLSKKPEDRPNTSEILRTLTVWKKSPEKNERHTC
T3 sequence (O94804 whole entry): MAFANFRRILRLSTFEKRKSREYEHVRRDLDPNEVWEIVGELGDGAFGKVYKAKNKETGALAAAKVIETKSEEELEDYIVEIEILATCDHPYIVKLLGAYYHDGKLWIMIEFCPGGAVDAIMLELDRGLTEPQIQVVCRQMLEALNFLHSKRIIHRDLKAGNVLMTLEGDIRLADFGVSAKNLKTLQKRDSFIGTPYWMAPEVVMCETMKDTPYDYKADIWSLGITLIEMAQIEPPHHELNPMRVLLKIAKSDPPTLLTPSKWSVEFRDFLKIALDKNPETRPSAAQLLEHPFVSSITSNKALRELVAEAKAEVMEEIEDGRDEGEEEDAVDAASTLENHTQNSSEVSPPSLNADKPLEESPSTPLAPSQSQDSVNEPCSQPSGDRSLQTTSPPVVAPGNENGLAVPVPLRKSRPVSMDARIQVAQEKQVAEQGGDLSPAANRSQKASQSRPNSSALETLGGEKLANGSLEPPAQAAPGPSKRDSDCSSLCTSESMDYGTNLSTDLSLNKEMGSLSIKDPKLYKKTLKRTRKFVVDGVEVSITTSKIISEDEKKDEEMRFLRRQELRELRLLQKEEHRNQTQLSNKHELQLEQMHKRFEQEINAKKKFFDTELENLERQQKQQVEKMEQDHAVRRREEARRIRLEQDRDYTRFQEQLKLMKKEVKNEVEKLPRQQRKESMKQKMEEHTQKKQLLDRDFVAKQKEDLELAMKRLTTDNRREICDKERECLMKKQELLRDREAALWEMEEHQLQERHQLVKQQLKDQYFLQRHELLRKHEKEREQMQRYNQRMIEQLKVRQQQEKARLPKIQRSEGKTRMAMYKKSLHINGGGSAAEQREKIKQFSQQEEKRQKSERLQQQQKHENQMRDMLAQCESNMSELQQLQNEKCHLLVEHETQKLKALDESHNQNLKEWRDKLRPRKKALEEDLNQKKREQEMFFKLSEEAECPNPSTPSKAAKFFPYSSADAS
T5 sequence (Q13043 whole entry): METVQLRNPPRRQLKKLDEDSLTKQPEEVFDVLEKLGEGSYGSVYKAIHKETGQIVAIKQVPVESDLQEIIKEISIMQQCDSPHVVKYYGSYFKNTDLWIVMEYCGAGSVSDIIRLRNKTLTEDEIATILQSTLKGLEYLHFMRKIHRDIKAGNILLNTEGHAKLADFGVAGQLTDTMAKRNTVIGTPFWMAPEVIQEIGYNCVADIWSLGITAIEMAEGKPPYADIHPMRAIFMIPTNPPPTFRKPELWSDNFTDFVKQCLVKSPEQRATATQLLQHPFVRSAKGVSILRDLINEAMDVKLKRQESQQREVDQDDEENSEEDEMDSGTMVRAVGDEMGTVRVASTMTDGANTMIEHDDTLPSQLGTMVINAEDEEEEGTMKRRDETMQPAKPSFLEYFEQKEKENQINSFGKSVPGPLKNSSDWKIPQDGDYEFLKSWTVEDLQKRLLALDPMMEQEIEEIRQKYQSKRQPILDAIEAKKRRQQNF
T4 sequence (P08581 25-1390): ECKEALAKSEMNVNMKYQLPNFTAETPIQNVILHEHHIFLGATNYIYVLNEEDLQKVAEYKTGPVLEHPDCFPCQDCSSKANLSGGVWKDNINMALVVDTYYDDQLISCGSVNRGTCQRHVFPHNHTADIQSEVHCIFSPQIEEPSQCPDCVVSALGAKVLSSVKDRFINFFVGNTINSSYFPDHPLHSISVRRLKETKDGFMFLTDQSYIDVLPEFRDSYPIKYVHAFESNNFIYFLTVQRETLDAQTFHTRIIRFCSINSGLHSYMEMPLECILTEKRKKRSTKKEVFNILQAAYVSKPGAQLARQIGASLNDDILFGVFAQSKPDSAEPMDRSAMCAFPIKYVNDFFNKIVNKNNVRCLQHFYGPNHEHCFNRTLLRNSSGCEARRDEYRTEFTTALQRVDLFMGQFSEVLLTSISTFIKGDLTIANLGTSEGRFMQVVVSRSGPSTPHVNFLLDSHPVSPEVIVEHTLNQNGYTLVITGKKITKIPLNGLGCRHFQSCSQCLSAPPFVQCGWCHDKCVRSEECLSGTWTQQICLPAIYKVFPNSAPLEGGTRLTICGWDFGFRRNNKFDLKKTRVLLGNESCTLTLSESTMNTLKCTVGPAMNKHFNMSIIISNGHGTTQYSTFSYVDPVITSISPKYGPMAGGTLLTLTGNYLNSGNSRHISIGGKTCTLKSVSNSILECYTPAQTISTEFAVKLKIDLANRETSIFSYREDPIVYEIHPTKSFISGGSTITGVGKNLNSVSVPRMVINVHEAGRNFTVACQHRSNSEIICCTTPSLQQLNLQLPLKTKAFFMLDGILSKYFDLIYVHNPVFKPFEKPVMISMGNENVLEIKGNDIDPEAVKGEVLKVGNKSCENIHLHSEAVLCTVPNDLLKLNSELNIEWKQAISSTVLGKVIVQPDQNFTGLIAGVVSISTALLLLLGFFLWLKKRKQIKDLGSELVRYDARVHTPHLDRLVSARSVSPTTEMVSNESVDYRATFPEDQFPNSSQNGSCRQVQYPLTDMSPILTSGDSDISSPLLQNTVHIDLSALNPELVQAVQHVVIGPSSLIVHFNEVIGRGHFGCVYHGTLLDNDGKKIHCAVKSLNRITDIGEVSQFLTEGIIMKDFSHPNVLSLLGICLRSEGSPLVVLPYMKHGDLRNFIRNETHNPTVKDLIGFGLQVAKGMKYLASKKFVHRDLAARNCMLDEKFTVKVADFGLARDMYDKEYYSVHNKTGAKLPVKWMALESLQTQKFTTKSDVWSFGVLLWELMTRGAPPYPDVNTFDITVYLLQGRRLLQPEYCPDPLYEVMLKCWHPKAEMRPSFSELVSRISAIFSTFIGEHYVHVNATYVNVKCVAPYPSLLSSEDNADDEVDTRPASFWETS

SMILES | KiNativ Kinase Panel Data (AMPKa1, AMPKa2; Lys1, VAVKILNR) | KiNativ Kinase Panel Data (JAK1_Domain2 domain2; [2]) | KiNativ Kinase Panel Data (JAK1_Domain2 domain2; [3]) | KiNativ Kinase Panel Data (LATS2; Lys2, DIKPDNILIDLDGHIK) | KiNativ Kinase Panel Data (LOK) | KiNativ Kinase Panel Data (MAP3K2, MAP3K3) | KiNativ Kinase Panel Data (MET) | KiNativ Kinase Panel Data (MST1) | KiNativ Kinase Panel Data (PITSLRE) | KiNativ Kinase Panel Data (PKR; [4]) | KiNativ Kinase Panel Data (PKR; Lys1, TYVIKR) | KiNativ Kinase Panel Data (PKR; Lys2, DLKPSNIFLVDTK) | also measured
CO[C@H]1C[C@@H]2CC[C@@H](C)[C@@](O)(O2)C(=O)C(=O)N2CCCC[C@H]2C(=O)O[C@H]([C@H](C)C[C@@H]2CC[C@@H](OC(=O)NCCOCCOCCOCCOCCOCCOCCOCCOCCC(=O)N3CCc4cc(Cn5nc(-c6ccc7oc(N)nc7c6)c6c(N)ncnc65)ccc4C3)[C@H](OC)C2)C[C@@H](O)[C@H](C)/C=C(\C)[C@@H](O)[C@@H](OC)C(=O)[C@H](C)C[C@H](C)/C=C/C=C/C=C/1C [compound 38] | 6.8 | 31.3 | 26.2 | 22.9 | -65.4 | -12.6 | 3.9 | 10.7 | 17.8 | 12.1 | 15.2 | 11.0 | KiNativ Kinase Panel Data (AMPKa1, AMPKa2; Lys2, […]): -6.5; KiNativ Kinase Panel Data (FYN, SRC, YES; […]): -6.3; KiNativ Kinase Panel Data (LATS2; Lys1, […]): -20.5; KiNativ Kinase Panel Data (MAST1, MAST2; […]): 19.6; KiNativ Kinase Panel Data (ULK3; Lys1, […]): 0.5; KiNativ Kinase Panel Data (ULK3; Lys2, […]): 11.9; KiNativ Kinase Panel Data ([1]; […]): 8.5
CO[C@H]1C[C@@H]2CC[C@@H](C)[C@@](O)(O2)C(=O)C(=O)N2CCCC[C@H]2C(=O)O[C@H]([C@H](C)C[C@@H]2CC[C@@H](OC(=O)NCCOCCOCCOCCOCCOCCOCCOCCOCCC(=O)NCCS(=O)(=O)c3ccc(C(=O)N4CCOc5ccc(-c6ccc(N)nc6)cc5C4)c(C)c3F)[C@H](OC)C2)C[C@@H](O)[C@H](C)/C=C(\C)[C@@H](O)[C@@H](OC)C(=O)[C@H](C)C[C@H](C)/C=C/C=C/C=C/1C [compound 40] | 2.1 | 19.5 | 13.3 | -1.4 | -19.4 | -18.2 | 6.3 | 18.2 | 13.7 | 17.4 | 9.6 | -32.5 | KiNativ Kinase Panel Data (AMPKa1, AMPKa2; Lys2, DLKPENVLLDAHMNAK): -1.3; KiNativ Kinase Panel Data (FYN, SRC, YES; QGAKFPIKWTAPEAALYGR): -28.5; KiNativ Kinase Panel Data (LATS2; Lys1, VDTHALYAMKTLR): -0.8; KiNativ Kinase Panel Data (MAST1, MAST2; DLKPDNLLITSMGHIK): 22.5; KiNativ Kinase Panel Data (ULK3; Lys1, EVVAIKCVAK): -22.8; KiNativ Kinase Panel Data (ULK3; Lys2, NISHLDLKPQNILLSSLEKPHLK): -5.4; KiNativ Kinase Panel Data ([1]; DIKGQNVLLTENAEVK): -13.4
